Assay results reported in PMC10208570, “Peptidomimetic antibiotics disrupt the lipopolysaccharide transport bridge of drug-resistant Enterobacteriaceae” (Science Advances, 2023).
Where a SMILES comes first, the peptide text is derived from it. Bridges are numbered along the chain shown (N, C = ends). [ ]: non-standard residue; d: D form. The star is where a group is joined. X1 = CC1(CCCCS(=O)(=O)O)C(/C=C/C=C/C=C2/N(CCCS(=O)(=O)O)c3ccc(S(=O)(=O)O)cc3C2(C)C)=[N+](CCCCCC(=O)NCc2cn(CCOCCOCCOCCOCCC(=O)*)nn2)c2ccc(S(=O)(=O)[O-])cc21; Hyp = O=C(O)[C@@H]1C[C@@H](O)CN1; Pen = CC(C)(S)[C@H](N)C(=O)O; dDab = NCC[C@@H](N)C(=O)O; Dab = NCC[C@H](N)C(=O)O

Experiments:
LptAm [1] = target: T1, LptAm (Escherichia coli, UniProt P0ADV1); assay: FP direct binding assay; design: species or system E. coli
T1 construct: His6-GB1 (N, cleaved yes); made in house; host or cells: E. coli BL21 (DE3)
T1 sequence (P0ADV1 28-159): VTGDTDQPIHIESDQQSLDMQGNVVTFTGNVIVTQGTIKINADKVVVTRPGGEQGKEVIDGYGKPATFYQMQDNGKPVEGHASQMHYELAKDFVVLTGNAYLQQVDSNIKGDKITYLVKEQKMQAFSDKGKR
Procedure: (§8) Anisotropy for the blank, the fluorescently labeled peptide only (6-FL only), was measured and subtracted from r to yield r′. The r′ data were normalized and fit to the One site − Total model on GraphPad Prism 9. A nonspecific binding factor (NS) was determined using a linear regression model (y = NS ∗ X + b) at the highest concentrations and incorporated into the fit. The dissociation constants (Kd) were calculated using the total protein concentrations using the equation y=Bmax∗X/Kd+X

LptAmD33A = target: T2, LptAmD33A (Escherichia coli, UniProt P0ADV1, D33A); assay: FP direct binding assay; design: species or system E. coli
T2 construct: His6-GB1 (N, cleaved yes); made in house; host or cells: E. coli BL21 (DE3)
T2 sequence (P0ADV1 28-159 D33A): as the sequence (P0ADV1 28-159) above, with D6A counted along it
Procedure: as §8

LptAmQ62L [2] = target: T3, LptAmQ62L (Escherichia coli, UniProt P0ADV1, Q62L); assay: FP direct binding assay; design: species or system E. coli
T3 construct: His6-GB1 (N, cleaved yes); made in house; host or cells: E. coli BL21 (DE3)
T3 sequence (P0ADV1 28-159 Q62L): as the sequence (P0ADV1 28-159) above, with Q35L counted along it
Procedure: as §8

LptAmQ62L, D33A = target: T4, LptAmQ62L, D33A (Escherichia coli, UniProt P0ADV1, D33A/Q62L); assay: FP direct binding assay; design: species or system E. coli
T4 construct: His6-GB1 (N, cleaved yes); made in house; host or cells: E. coli BL21 (DE3)
T4 sequence (P0ADV1 28-159 D33A/Q62L): as the sequence (P0ADV1 28-159) above, with D6A, Q35L counted along it
Procedure: as §8

mLptA [3] = target: T5, mLptA (Escherichia coli, UniProt P0ADV1, E39V/M47A/R76A); assay: biochemical; format: binding, E. coli
T5 construct: the LptA25–185 mutant E39V M47A R76A was selected as the best candidate; His6-GB1 (N, cleaved yes); made in house; host or cells: E. coli BL21 (DE3)
T5 sequence (P0ADV1 25-185 E39V/M47A/R76A): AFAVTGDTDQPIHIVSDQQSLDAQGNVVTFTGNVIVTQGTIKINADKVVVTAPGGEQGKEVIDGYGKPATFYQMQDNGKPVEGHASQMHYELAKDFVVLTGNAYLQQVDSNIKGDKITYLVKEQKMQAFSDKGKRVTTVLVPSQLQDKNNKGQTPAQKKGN
Procedure: (§1) Protein stocks were purified and concentrated in buffer 1 [50 mM Na-Pi (pH 7) and 150 mM NaCl] and, if necessary, diluted to desired concentrations using buffer 2 [50 mM Na-Pi (pH 7), 150 mM NaCl, and 0.05% Tween 20]. Peptide stocks and fluorescently labeled peptide stocks were made in buffer 2. Every serial dilution consisted of 24 wells, the first well with the highest concentrate and the last well (well 24) with the lowest. First, 50 μl of buffer 2 was added to the wells 2 to 24 of each serial dilution. Then, 100 μl of concentrated unlabeled peptide/protein in their respective buffers was added to the first well. […] Anisotropy was measured using the Tecan Safire2 plate reader using a 10-nm bandwidth and setting the excitation and emission wavelengths to 635 and 670 nm, respectively. The G-factor (G) was also determined empirically as 1.094 for the instrument and included in all the anisotropy calculations.
(§2) For direct binding assays, fluorescence anisotropy (r) was calculated using the parallel and perpendicular polarized intensities (I) by the equation r=I∥−I⊥∗G/I∥+2I⊥∗G
(§3) Anisotropy for the blank, the fluorescently labeled peptide only (6-FL only), was measured and subtracted from r to yield r′. […] A nonspecific binding factor (NS) was determined using a linear regression model (y = NS ∗ X + b) at the highest concentrations and incorporated into the fit.

mLptAQ62L = target: T6, mLptAQ62L (Escherichia coli, UniProt P0ADV1, E39V/M47A/Q62L/R76A); assay: biochemical; format: binding, E. coli
T6 construct: the LptA25–185 mutant E39V M47A R76A was selected as the best candidate; His6-GB1 (N, cleaved yes); made in house; host or cells: E. coli BL21 (DE3)
T6 sequence (P0ADV1 25-185 E39V/M47A/Q62L/R76A): as the sequence (P0ADV1 25-185 E39V/M47A/R76A) above, with Q38L counted along it
Procedure: as §1, §2, §3

LptAmQ62L [4] = settings: read-out: Kd ± 95CI, K. pneumoniae LptAmQ62L; FP direct binding of 6-FL; triplicates; ± 95% CI of fit
Procedure: (§4) Protein stocks were purified and concentrated in buffer 1 [50 mM Na-Pi (pH 7) and 150 mM NaCl] and, if necessary, diluted to desired concentrations using buffer 2 [50 mM Na-Pi (pH 7), 150 mM NaCl, and 0.05% Tween 20]. Peptide stocks and fluorescently labeled peptide stocks were made in buffer 2. Every serial dilution consisted of 24 wells, the first well with the highest concentrate and the last well (well 24) with the lowest. First, 50 μl of buffer 2 was added to the wells 2 to 24 of each serial dilution. Then, 100 μl of concentrated unlabeled peptide/protein in their respective buffers was added to the first well. Fifty microliters were taken from the first well and added to the second well for a 1:1 serial dilution and continued for the 24 wells. […] Plates were covered with adhesive seals and left to incubate overnight at 4°C before FP measurements the next day. Anisotropy was measured using the Tecan Safire2 plate reader using a 10-nm bandwidth and setting the excitation and emission wavelengths to 635 and 670 nm, respectively. The G-factor (G) was also determined empirically as 1.094 for the instrument and included in all the anisotropy calculations.
as §2
(§5) Anisotropy for the blank, the fluorescently labeled peptide only (6-FL only), was measured and subtracted from r to yield r′. The r′ data were normalized and fit to the One site − Total model on GraphPad Prism 9. A nonspecific binding factor (NS) was determined using a linear regression model (y = NS ∗ X + b) at the highest concentrations and incorporated into the fit.

LptAm [5] = settings: read-out: Kd ± 95CI, K. pneumoniae LptAm; FP direct binding of 6-FL; triplicates; ± 95% CI of fit
Procedure: as §4, §2, §5

mLptA [6] = settings: read-out: Kd ± 95CI, K. pneumoniae mLptA; FP direct binding of 6-FL; triplicates; ± 95% CI of fit
Procedure: as §4, §2, §5

[7] = system: E. coli ATCC 25922 (parent / WT); assay: microbe, parasite or virus in culture; settings: CLSI method; parent strain
In short: (§6)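 MICs were determined by CLSI methodology. Serial passage studies were also run, and resistant mutants isolated from them were re-tested for MIC and then characterised by whole-genome sequencing.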

[8] = system: E. coli ATCC 25922 LptA Q62L mutant; assay: microbe, parasite or virus in culture; settings: CLSI method; clone harboring LptA Q62L
In short: as §6

[9] = system: K. pneumoniae 968733 (CST-R); assay: MIC assay (CLSI); format: cell-based, Klebsiella pneumoniae; settings: CLSI method; colistin-resistant strain
In short: as §6

human red blood cells = assay: Haemolysis; format: cell-based; settings: PBS-washed human red blood cells; 1 h at 200 mg/liter, 37°C; OD 540 nm; versus 100% lysis control 2.5% Triton X-100; biological replicates
Procedure: To test their hemolytic potential, compounds were incubated in the presence of phosphate-buffered saline (PBS)–washed human red blood cells. After 1-hour incubation at 200 mg/liter and 37°C, the samples were centrifuged (3220g), the supernatants were diluted in Dulbecco’s PBS, and optical density at 540 nm was determined. The hemolysis induced by the compound was calculated versus a 100% lysis control prepared with 2.5% Triton X-100 (table S4A).

in vitro = format: cell-based; settings: human
Procedure: (§7) The cytotoxicity of compounds was determined by determining the number of viable cells using the Sigma Cell Counting Kit-8 (WST-8). HeLa cells were incubated at 37°C and 5% CO2 for 24 hours, after which the medium was replaced with fresh medium containing dilutions of compounds. […]

HeLa cells = assay: in vitro; format: cell-based
Procedure: as §7

## CC[C@H](C)[C@H](NC(=O)[C@@H]1C[C@@H](O)CN1C(=O)[C@@H](N)C(C)C)C(=O)N[C@H](C(=O)N[C@@H](Cc1ccc(O)cc1)C(=O)N[C@@H]1C(=O)N[C@@H](CC(N)=O)C(=O)N[C@@H](CCCNC(=N)N)C(=O)N[C@@H](CCN)C(=O)N[C@@H](CCCCNC(=O)CCOCCOCCOCCOCCn2cc(CNC(=O)CCCCC[N+]3=C(/C=C/C=C/C=C4/N(CCCS(=O)(=O)O)c5ccc(S(=O)(=O)O)cc5C4(C)C)C(C)(CCCCS(=O)(=O)O)c4cc(S(=O)(=O)[O-])ccc43)nn2)C(=O)N[C@H](CCN)C(=O)N[C@@H](CCCCN)C(=O)N[C@H](C(=O)N[C@@H](CCN)C(=O)N[C@@H](CCCNC(=N)N)C(=O)N[C@@H](Cc2ccc(O)cc2)C(=O)O)CSSC1(C)C)[C@@H](C)O (stereo partly drawn) [6-FL] (H-V[Hyp]ITY[Pen]NR[Dab]K(X1)[dDab]KC[Dab]RY-OH; disulfide 6-13)
LptAm [1]
  Kd: 6.9 ± 1.7 nM
LptAmD33A
  Kd: 13.8 ± 8.2 nM
LptAmQ62L [2]
  Kd: 73.3 ± 21.3 nM
LptAmQ62L, D33A
  Kd: 82.4 ± 10.3 nM
mLptA [3]
  Kd: 968 ± 191 nM
mLptAQ62L
  Kd: 8140 ± 1180 nM
LptAmQ62L [4]
  Kd: 242 ± 45.1 nM
LptAm [5]
  Kd: 3.7 ± 0.9 nM
mLptA [6]
  Kd: 453 ± 29.3 nM

## CC[C@H](C)[C@H](NC(=O)[C@@H](NC(=O)[C@@H]1CCCN1C(=O)[C@@H](N)C(C)C)[C@@H](C)CC)C(=O)N[C@@H](Cc1ccc(O)cc1)C(=O)N[C@@H]1C(=O)N[C@@H](CC(N)=O)C(=O)N[C@@H](CCCNC(=N)N)C(=O)N[C@@H](CCN)C(=O)N[C@@H]([C@@H](C)O)C(=O)N[C@H](CCN)C(=O)N[C@@H](CCCCN)C(=O)N[C@H](C(=O)N[C@@H](CCN)C(=O)N[C@@H](CCCNC(=N)N)C(=O)N[C@@H](Cc2ccc(O)cc2)C(=O)O)CSSC1(C)C [Compound 3] (H-VPIIY[Pen]NR[Dab]T[dDab]KC[Dab]RY-OH; disulfide 6-13)
[7]
  MIC E. coli ATCC 25922 Parent: 0.063 micrograms per milliliter
[8]
  MIC E. coli ATCC 25922 Q62L mutant: 1 micrograms per milliliter
[9]
  MIC K. pneumoniae 968733 (CST-R) Parent: 0.25 micrograms per milliliter
Human red blood cells
  Haemolysis % at 0.2 g/L: 0%
In vitro
  IC50 at 48 h: 41000 nM
HeLa cells
  IC50: 40000 nM
